Test systems include NCI-H226 lung; COLO 205 colon; HT29 colon; IGROV1 ovarian; NCI/ADR-RES ovarian; UO-31 renal; U251 CNS; ACHN renal; HS 578T breast; HCT-116 colon; MOLT-4 leukemia; RPMI-8226 leukemia; MDA-MB-435; T-47D breast; SW-620 colon; SF-539 CNS.
Assay in all cases: NCI-60 cell line screen, 48 h

Data on 14 molecules can be found in PubChem BioAssay (NCI).

SMILES strings stand for the structures.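 Each compound was tested at five concentrations against cells in 96-well plates for 48 hours. TGI: concentration producing complete growth inhibition.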 Where only a bound is given, the exact number is not on record here.

`CN(CCCN(C)CCc1ccc(Cl)c(Cl)c1)CCCN1CCCC1`: the TGI is 5.68 µM with NCI-H226 lung; 6.84 µM in the experiment on COLO 205 colon; 2.58 µM with HT29 colon; 8.65 µM in the experiment with IGROV1 ovarian; 19.8 µM in the experiment with NCI/ADR-RES ovarian; 2.76 µM in the experiment on UO-31 renal. Further, the TGI with U251 CNS is 4.62 µM; with ACHN renal it was 19.2 µM; with HS 578T breast, 4.31 µM; with HCT-116 colon it was 4.11 µM; in the experiment on MOLT-4 leukemia it was 12.4 µM; with RPMI-8226 leukemia, 2.19 µM. Further, the TGI in the experiment on MDA-MB-435 turned out to be 1.42 µM; in the experiment with T-47D breast it was 5.94 µM; in the experiment on SW-620 colon, 7.96 µM.

On to `CC(C)CCc1n[nH]c(=O)n1/N=C\c1ccccc1`, for which the TGI was above 100 µM with NCI-H226 lung; above 100 µM in the experiment with COLO 205 colon; above 100 µM in the experiment on HT29 colon; above 100 µM in the experiment with IGROV1 ovarian; above 100 µM in the experiment with NCI/ADR-RES ovarian; 86.1 µM in the experiment with UO-31 renal. The TGI with SF-539 CNS, with U251 CNS, with ACHN renal, in the experiment on HS 578T breast, in the experiment on HCT-116 colon and in the experiment on MOLT-4 leukemia was above 100 µM throughout. In addition, the TGI with MDA-MB-435, in the experiment with T-47D breast and in the experiment with SW-620 colon was above 100 µM throughout.

With `COC(=O)C1=C(C)NC(C)=C(C(=O)OC)C1c1cccc(NO)c1`, the TGI in the experiment with NCI-H226 lung was 40.7 µM; in the experiment on COLO 205 colon, 30.3 µM; in the experiment with HT29 colon it was 32.4 µM; in the experiment on IGROV1 ovarian it was 30.4 µM; in the experiment on NCI/ADR-RES ovarian it was 42.3 µM; with UO-31 renal it was 23.6 µM. Moreover, the TGI in the experiment on SF-539 CNS is 32.6 µM; in the experiment on U251 CNS it was 29.8 µM; in the experiment with ACHN renal it was 26.8 µM; in the experiment on HS 578T breast, 64.4 µM; in the experiment with HCT-116 colon it was 26.4 µM; in the experiment on RPMI-8226 leukemia, above 100 µM. Besides, the TGI was 30.9 µM in the experiment with MDA-MB-435, 55.4 µM in the experiment with T-47D breast and 28.5 µM with SW-620 colon.

As for `CC(C)(C)OC(=O)N(CCNS(=O)(=O)c1cccc2cnccc12)CCC(=O)ON1C(=O)CCC1=O`, the TGI in the experiment on NCI-H226 lung, with COLO 205 colon, in the experiment with HT29 colon, in the experiment with IGROV1 ovarian, in the experiment on NCI/ADR-RES ovarian and in the experiment on UO-31 renal was above 100 µM throughout. For the same molecule, the TGI with U251 CNS, in the experiment with ACHN renal, in the experiment with HS 578T breast, with HCT-116 colon, in the experiment on MOLT-4 leukemia and with RPMI-8226 leukemia was above 100 µM each time. The TGI with MDA-MB-435, in the experiment on T-47D breast and in the experiment on SW-620 colon was above 100 µM each time.

Turning to `Cc1ccc(-c2c(C#N)c(N)nc3c2CCS(=O)(=O)c2ccccc2-3)cc1`, the TGI with NCI-H226 lung, with COLO 205 colon, with HT29 colon, with IGROV1 ovarian, in the experiment with NCI/ADR-RES ovarian and with UO-31 renal was above 100 µM each time. Also, the TGI with U251 CNS, in the experiment on ACHN renal, in the experiment with HS 578T breast, in the experiment on HCT-116 colon, with RPMI-8226 leukemia and with MDA-MB-435 was above 100 µM throughout. For the same molecule, the TGI with T-47D breast and in the experiment on SW-620 colon was above 100 µM throughout.

Turning to `COc1cc2c(cc1OC)C(C)N(C)c1c-2c(OC(C)=O)cc2cc(OC)c(OC)cc12` (stereo not given), the TGI was above 44.1 µM with NCI-H226 lung; 20 µM in the experiment with COLO 205 colon; above 58.9 µM with HT29 colon; 33.2 µM in the experiment with NCI/ADR-RES ovarian; above 92.1 µM in the experiment on UO-31 renal; 40.6 µM in the experiment on SF-539 CNS. For the same molecule, the TGI with U251 CNS was above 68.5 µM; in the experiment on ACHN renal, 97 µM; in the experiment with HS 578T breast, above 57.1 µM; with HCT-116 colon it was 35.2 µM; in the experiment on MOLT-4 leukemia, above 100 µM; in the experiment on RPMI-8226 leukemia it was above 59 µM. The TGI with MDA-MB-435 is 35.6 µM; in the experiment with T-47D breast, 24.1 µM; with SW-620 colon it was above 78.2 µM.

`C/C(=N\NC(=S)NC(C)(C)C)c1ccccn1`: the TGI with NCI-H226 lung is 16 µM; in the experiment on COLO 205 colon it was above 100 µM; with HT29 colon, above 76.6 µM; with IGROV1 ovarian it was above 40.6 µM; with NCI/ADR-RES ovarian, above 39.7 µM; in the experiment on UO-31 renal it was 14.3 µM. Also, the TGI in the experiment on SF-539 CNS was 18.1 µM; in the experiment with U251 CNS, above 85.9 µM; in the experiment on HS 578T breast, above 100 µM; in the experiment on HCT-116 colon, above 100 µM; in the experiment with RPMI-8226 leukemia, 3.72 µM; in the experiment with MDA-MB-435 it was above 100 µM. Further, the TGI in the experiment on T-47D breast is 34.9 µM; with SW-620 colon, above 100 µM.

Regarding `Cc1ccc(S(=O)(=O)n2c3c(c4ccccc42)CCN2CCC(Br)C[C@@H]32)cc1` (stereo not given in full), the TGI with NCI-H226 lung stood at 27.9 µM; in the experiment with COLO 205 colon, 30.2 µM; in the experiment on HT29 colon it was 26.3 µM; in the experiment with IGROV1 ovarian it was 22.3 µM; in the experiment with NCI/ADR-RES ovarian it was 32.5 µM; with UO-31 renal, 24.2 µM. For the same molecule, the TGI was determined as 31.5 µM with SF-539 CNS; 24.9 µM in the experiment with U251 CNS; 34.8 µM in the experiment on ACHN renal; 28.5 µM with HS 578T breast; 25.8 µM with MOLT-4 leukemia; 24.4 µM with RPMI-8226 leukemia. In addition, the TGI in the experiment with MDA-MB-435 amounted to 14.4 µM; in the experiment on T-47D breast, 21.8 µM; in the experiment with SW-620 colon, 26.1 µM.

Take `CC(=O)N1N(c2ccc([N+](=O)[O-])cc2)C(=O)C1(C)C`: the TGI in the experiment on NCI-H226 lung came to 37.6 µM; in the experiment with COLO 205 colon, 30.5 µM; in the experiment on HT29 colon, 44.8 µM; in the experiment with IGROV1 ovarian, 44.8 µM; in the experiment with NCI/ADR-RES ovarian, 89.9 µM; with UO-31 renal, 32.4 µM. The TGI in the experiment on SF-539 CNS is 49.7 µM; in the experiment with U251 CNS, 52.8 µM; in the experiment with ACHN renal, 41.5 µM; in the experiment on HS 578T breast, above 100 µM; in the experiment with MOLT-4 leukemia, 43.4 µM; in the experiment with MDA-MB-435, 63.1 µM. Also, the TGI in the experiment on T-47D breast was above 100 µM; in the experiment with SW-620 colon, 29.2 µM.

`CCOc1cc2c(cc1OC(C)=O)C(=O)CC[C@H]1C3CC[C@H](OC(C)=O)[C@@]3(C)CC[C@H]21` (stereo not given in full): the TGI with NCI-H226 lung, with COLO 205 colon, with HT29 colon, in the experiment on NCI/ADR-RES ovarian, with UO-31 renal and in the experiment with SF-539 CNS was above 100 µM in each case. For the same molecule, the TGI in the experiment with U251 CNS, in the experiment with ACHN renal, in the experiment on HS 578T breast, in the experiment with HCT-116 colon, in the experiment on MOLT-4 leukemia and in the experiment with RPMI-8226 leukemia was above 100 µM each time. Further, the TGI in the experiment with MDA-MB-435, in the experiment with T-47D breast and with SW-620 colon was above 100 µM in each case.

On to `COc1ccc(C(=O)/C=C/c2cccnc2)cc1OC`, for which the TGI with NCI-H226 lung worked out at 24.8 µM; in the experiment on COLO 205 colon it was 22.9 µM; in the experiment on HT29 colon, 15.2 µM; with IGROV1 ovarian it was 21.9 µM; in the experiment with NCI/ADR-RES ovarian, 36.5 µM; in the experiment on UO-31 renal, 26.3 µM. Moreover, the TGI in the experiment with SF-539 CNS worked out at 6.4 µM; in the experiment with U251 CNS, 16.7 µM; with ACHN renal, 26.7 µM; with HS 578T breast, 49.6 µM; in the experiment with HCT-116 colon, 16.3 µM; in the experiment with MOLT-4 leukemia, 14.1 µM. In addition, the TGI worked out at 30.1 µM with MDA-MB-435 and 22 µM in the experiment on T-47D breast.

`Clc1nc(NCCc2ccccc2)c2ncn(-c3ccccc3)c2n1`: the TGI with NCI-H226 lung is 58.9 µM; in the experiment on COLO 205 colon, 50.6 µM; in the experiment with HT29 colon, 34.2 µM; in the experiment with IGROV1 ovarian, above 100 µM; in the experiment on NCI/ADR-RES ovarian, 57.9 µM; with UO-31 renal it was 43.1 µM. The TGI in the experiment on U251 CNS was 48.6 µM; with ACHN renal, 92.7 µM; with HS 578T breast, 76.7 µM; with HCT-116 colon, 56.4 µM; in the experiment on MOLT-4 leukemia it was 51 µM; in the experiment on RPMI-8226 leukemia, 47.3 µM. The TGI with MDA-MB-435 was 35.1 µM; with T-47D breast, 98.2 µM; in the experiment on SW-620 colon, above 100 µM.

Regarding `CN(C)CCn1c(=O)c2ccc3c4c(nn3CCN(C)C)c3cc(O)ccc3n(c1=O)c24`, the TGI in the experiment on NCI-H226 lung amounted to 1.44 µM; in the experiment on COLO 205 colon, 0.609 µM; in the experiment with HT29 colon, 0.262 µM; with NCI/ADR-RES ovarian, 6.82 µM; in the experiment with UO-31 renal, 0.675 µM; in the experiment on SF-539 CNS, 3.15 µM. Moreover, the TGI came to 0.689 µM in the experiment on ACHN renal; 0.373 µM in the experiment with HS 578T breast; 1.08 µM in the experiment with HCT-116 colon; 0.127 µM with MOLT-4 leukemia; 0.406 µM with RPMI-8226 leukemia; 0.641 µM in the experiment on MDA-MB-435. Further, the TGI was above 39.2 µM in the experiment with T-47D breast and 3.61 µM in the experiment on SW-620 colon.

Regarding `C=C1C(=O)O[C@H]2[C@H]3O[C@@H](C[C@@H]12)[C@@]1(C)CC[C@H](O1)C(C)=CCC[C@H]3C`, the TGI in the experiment with NCI-H226 lung is 7.02 µM; in the experiment on COLO 205 colon, 3.47 µM; with HT29 colon, 3.33 µM; in the experiment on IGROV1 ovarian, 3.83 µM; in the experiment on NCI/ADR-RES ovarian it was 3.33 µM; in the experiment on UO-31 renal, 2.77 µM. Moreover, the TGI in the experiment with SF-539 CNS was 3.07 µM; in the experiment on U251 CNS, 2.97 µM; in the experiment with ACHN renal it was 2.88 µM; in the experiment on HS 578T breast, 8.95 µM; with HCT-116 colon, 4.29 µM; in the experiment with RPMI-8226 leukemia it was 2.46 µM. For the same molecule, the TGI stood at 2.92 µM with MDA-MB-435, 6.3 µM in the experiment on T-47D breast and 7.41 µM in the experiment with SW-620 colon.
